This note sets out measurements from ChEMBL document CHEMBL1697781, “Assessment of the health effects of chemicals in humans: II. Construction of an adverse effects database for QSAR modeling” (Curr Drug Discov Technol, 2004).

What all share (details): human
The subject of data set [1] is Hepatotoxicity. In words: FDA HLAED, liver enzyme composite activity.
Data set [2] relates to Hepatotoxicity. In words: FDA HLAED, alkaline phosphatase increase.
In data set [3] the test system is Hepatotoxicity. In words: FDA HLAED, serum glutamic oxaloacetic transaminase (SGOT) increase.
The test system of data set [4] is Hepatotoxicity. In words: FDA HLAED, serum glutamic pyruvic transaminase (SGPT) increase.
Data set [5] has as its system Hepatotoxicity. Briefly: FDA HLAED, lactate dehydrogenase (LDH) increase.
The subject of data set [6] is Hepatotoxicity. In words: FDA HLAED, gamma-glutamyl transferase (GGT) increase.

Molecules are shown by their SMILES.
Throughout, for GGT Increase - Index Value: reference of the scale not given here.
Throughout, for LDH Increase - Index Value: reference of the scale not given here.

Regarding `C[C@@H]1CN(c2c(F)c(N)c3c(=O)c(C(=O)O)cn(C4CC4)c3c2F)C[C@H](C)N1` [SPARFLOXACIN], in the data set on Hepatotoxicity [1], the “Composite Activity - Active” value worked out at 0, the “Composite Activity - Marginal” value was 0 and the “Composite Activity - Score” value is on record as “Inactive”. Moreover, in the data set with Hepatotoxicity [2], the “Alkaline Phosphatase Increase - Activity Score” value is listed as “Inactive”, the “Alkaline Phosphatase Increase - Index Value” is 0 and the “Alkaline Phosphatase Increase - Number of Reports” value is reported as under 4. Also, in the data set on Hepatotoxicity [3], the “SGOT Increase - Activity Score” value is “Inactive”, the “SGOT Increase - Index Value” amounted to 0 and the “SGOT Increase - Number of Reports” value is on record as under 4. In the data set with Hepatotoxicity [4], the “SGPT Increase - Activity Score” value is reported as “Inactive”, the “SGPT Increase - Index Value” came out at 0 and the “SGPT Increase - Number of Reports” value was under 4. In the data set with Hepatotoxicity [5], the “LDH Increase - Activity Score” value is on record as “Inactive”, the “LDH Increase - Index Value” amounted to 0 and the “LDH Increase - Number of Reports” value was under 4. Moreover, in the data set with Hepatotoxicity [6], the “GGT Increase - Activity Score” value is recorded as “Inactive”, the “GGT Increase - Index Value” is on record as 0 and the “GGT Increase - Number of Reports” value is reported as under 4.
As to `Cc1cn([C@H]2C=C[C@@H](CO)O2)c(=O)[nH]c1=O` [STAVUDINE], in the data set on Hepatotoxicity [1], the “Composite Activity - Active” value is listed as 2, the “Composite Activity - Marginal” value is 1 and the “Composite Activity - Score” value is “Active”. Besides, in the data set with Hepatotoxicity [2], the “Alkaline Phosphatase Increase - Activity Score” value was “Inactive”, the “Alkaline Phosphatase Increase - Index Value” is 2.4 and the “Alkaline Phosphatase Increase - Number of Reports” value is “>= 4”. In the data set with Hepatotoxicity [3], the “SGOT Increase - Activity Score” value is “Active”, the “SGOT Increase - Index Value” came to 9.1 and the “SGOT Increase - Number of Reports” value is given as “>= 4”. In the data set on Hepatotoxicity [4], the “SGPT Increase - Activity Score” value is recorded as “Active”, the “SGPT Increase - Index Value” came out at 9.7 and the “SGPT Increase - Number of Reports” value is given as “>= 4”. For the same molecule, in the data set on Hepatotoxicity [5], the “LDH Increase - Activity Score” value was “Inactive”, the “LDH Increase - Index Value” is reported as 1.8 and the “LDH Increase - Number of Reports” value is under 4. In the data set on Hepatotoxicity [6], the “GGT Increase - Activity Score” value is “Marginally Active”, the “GGT Increase - Index Value” was determined as 3.6 and the “GGT Increase - Number of Reports” value is “>= 4”.
Turning to `CN(N=O)C(=O)N[C@@H](C=O)[C@@H](O)[C@H](O)[C@H](O)CO` [STREPTOZOCIN], in the data set on Hepatotoxicity [1], the “Composite Activity - Active” value is given as 0, the “Composite Activity - Marginal” value was determined as 0 and the “Composite Activity - Score” value is given as “Inactive”. Besides, in the data set on Hepatotoxicity [2], the “Alkaline Phosphatase Increase - Activity Score” value is listed as “Inactive”, the “Alkaline Phosphatase Increase - Index Value” came to 11.8 and the “Alkaline Phosphatase Increase - Number of Reports” value is on record as under 4. In the data set with Hepatotoxicity [3], the “SGOT Increase - Activity Score” value was “Inactive”, the “SGOT Increase - Index Value” was found to be 0 and the “SGOT Increase - Number of Reports” value is listed as under 4. Moreover, in the data set on Hepatotoxicity [4], the “SGPT Increase - Activity Score” value is given as “Inactive”, the “SGPT Increase - Index Value” is reported as 0 and the “SGPT Increase - Number of Reports” value is under 4. Further, in the data set on Hepatotoxicity [5], the “LDH Increase - Activity Score” value was “Inactive”, the “LDH Increase - Index Value” is 0 and the “LDH Increase - Number of Reports” value is listed as under 4. Also, in the data set on Hepatotoxicity [6], the “GGT Increase - Activity Score” value was “Inactive”, the “GGT Increase - Index Value” was 0 and the “GGT Increase - Number of Reports” value is under 4.
Consider `Clc1ccc(CSC(Cn2ccnc2)c2ccc(Cl)cc2Cl)cc1` (stereo unspecified) [SULCONAZOLE], for which, in the data set on Hepatotoxicity [1] (Liver), the “Composite Activity - Active” value turned out to be 0, the “Composite Activity - Marginal” value is given as 0 and the “Composite Activity - Score” value was “Inactive”. In the data set on Hepatotoxicity [2], the “Alkaline Phosphatase Increase - Activity Score” value is “Inactive”, the “Alkaline Phosphatase Increase - Index Value” amounted to 0 and the “Alkaline Phosphatase Increase - Number of Reports” value is given as under 4. In the data set on Hepatotoxicity [3], the “SGOT Increase - Activity Score” value is on record as “Inactive”, the “SGOT Increase - Index Value” amounted to 0 and the “SGOT Increase - Number of Reports” value is listed as under 4. Moreover, in the data set with Hepatotoxicity [4], the “SGPT Increase - Activity Score” value is recorded as “Inactive”, the “SGPT Increase - Index Value” stood at 0 and the “SGPT Increase - Number of Reports” value is under 4. In the data set with Hepatotoxicity [5], the “LDH Increase - Activity Score” value was “Inactive”, the “LDH Increase - Index Value” is on record as 0 and the “LDH Increase - Number of Reports” value was under 4. Also, in the data set with Hepatotoxicity [6], the “GGT Increase - Activity Score” value is given as “Inactive”, the “GGT Increase - Index Value” is 0 and the “GGT Increase - Number of Reports” value is on record as under 4.
Consider `CC(C(=O)O)c1ccc(C(=O)c2cccs2)cc1` (stereo unspecified) [SUPROFEN], for which, in the data set on Hepatotoxicity [1], the “Composite Activity - Active” value is given as 0, the “Composite Activity - Marginal” value is given as 0 and the “Composite Activity - Score” value is on record as “Inactive”. In the data set on Hepatotoxicity [2], the “Alkaline Phosphatase Increase - Activity Score” value was “Inactive”, the “Alkaline Phosphatase Increase - Index Value” is on record as 6.1 and the “Alkaline Phosphatase Increase - Number of Reports” value is on record as under 4. In the data set with Hepatotoxicity [3], the “SGOT Increase - Activity Score” value is given as “Inactive”, the “SGOT Increase - Index Value” is on record as 6.1 and the “SGOT Increase - Number of Reports” value was under 4. In addition, in the data set with Hepatotoxicity [4], the “SGPT Increase - Activity Score” value is “Inactive”, the “SGPT Increase - Index Value” was determined as 0 and the “SGPT Increase - Number of Reports” value is listed as under 4. In the data set with Hepatotoxicity [5], the “LDH Increase - Activity Score” value is reported as “Inactive”, the “LDH Increase - Index Value” is given as 0 and the “LDH Increase - Number of Reports” value is on record as under 4. Moreover, in the data set with Hepatotoxicity [6], the “GGT Increase - Activity Score” value is on record as “Inactive”, the “GGT Increase - Index Value” worked out at 0 and the “GGT Increase - Number of Reports” value is on record as under 4.
As to `Nc1c2c(nc3ccccc13)CCCC2` [TACRINE], in the data set with Hepatotoxicity [1] (Liver), the “Composite Activity - Active” value amounted to 5, the “Composite Activity - Marginal” value turned out to be 0 and the “Composite Activity - Score” value was “Active”. Further, in the data set with Hepatotoxicity [2], the “Alkaline Phosphatase Increase - Activity Score” value was “Active”, the “Alkaline Phosphatase Increase - Index Value” was determined as 14.1 and the “Alkaline Phosphatase Increase - Number of Reports” value was “>= 4”. Moreover, in the data set on Hepatotoxicity [3], the “SGOT Increase - Activity Score” value is given as “Active”, the “SGOT Increase - Index Value” is on record as 58.1 and the “SGOT Increase - Number of Reports” value was “>= 4”. For the same molecule, in the data set on Hepatotoxicity [4], the “SGPT Increase - Activity Score” value is listed as “Active”, the “SGPT Increase - Index Value” is listed as 170 and the “SGPT Increase - Number of Reports” value is recorded as “>= 4”. Moreover, in the data set on Hepatotoxicity [5], the “LDH Increase - Activity Score” value is on record as “Active”, the “LDH Increase - Index Value” amounted to 19 and the “LDH Increase - Number of Reports” value is listed as “>= 4”. Also, in the data set with Hepatotoxicity [6], the “GGT Increase - Activity Score” value was “Active”, the “GGT Increase - Index Value” is on record as 17.4 and the “GGT Increase - Number of Reports” value was “>= 4”.
Turning to `CCOC(=O)c1ccc(C#Cc2ccc3c(c2)C(C)(C)CCS3)nc1` [TAZAROTENE], in the data set with Hepatotoxicity [1], the “Composite Activity - Active” value is reported as 0, the “Composite Activity - Marginal” value is recorded as 0 and the “Composite Activity - Score” value is “Inactive”. For the same molecule, in the data set with Hepatotoxicity [2], the “Alkaline Phosphatase Increase - Activity Score” value is reported as “Inactive”, the “Alkaline Phosphatase Increase - Index Value” is recorded as 0 and the “Alkaline Phosphatase Increase - Number of Reports” value was under 4. In the data set with Hepatotoxicity [3], the “SGOT Increase - Activity Score” value was “Inactive”, the “SGOT Increase - Index Value” is 0 and the “SGOT Increase - Number of Reports” value was under 4. Besides, in the data set on Hepatotoxicity [4], the “SGPT Increase - Activity Score” value is “Inactive”, the “SGPT Increase - Index Value” turned out to be 0 and the “SGPT Increase - Number of Reports” value is recorded as under 4. Besides, in the data set on Hepatotoxicity [5], the “LDH Increase - Activity Score” value was “Inactive”, the “LDH Increase - Index Value” is on record as 0 and the “LDH Increase - Number of Reports” value is listed as under 4. Moreover, in the data set on Hepatotoxicity [6], the “GGT Increase - Activity Score” value was “Inactive”, the “GGT Increase - Index Value” stood at 0 and the “GGT Increase - Number of Reports” value is listed as under 4.
